Results reported in US9834542B2, “LXR modulators” (BRISTOL-MYERS SQUIBB COMPANY, priority 2013, dated 2017).

Molecular target: T1, LXRβ (Homo sapiens, UniProt P55055)
T1 construct: Co-transfection expression plasmids, comprising full-length LXRα (pCMX-h LXRα[…] or LXRβ (pCMX-hLXRβ)); expressed in transfected cells; host or cells: CV-1 African Green Monkey Kidney Cells
T1 sequence (P55055 1-460): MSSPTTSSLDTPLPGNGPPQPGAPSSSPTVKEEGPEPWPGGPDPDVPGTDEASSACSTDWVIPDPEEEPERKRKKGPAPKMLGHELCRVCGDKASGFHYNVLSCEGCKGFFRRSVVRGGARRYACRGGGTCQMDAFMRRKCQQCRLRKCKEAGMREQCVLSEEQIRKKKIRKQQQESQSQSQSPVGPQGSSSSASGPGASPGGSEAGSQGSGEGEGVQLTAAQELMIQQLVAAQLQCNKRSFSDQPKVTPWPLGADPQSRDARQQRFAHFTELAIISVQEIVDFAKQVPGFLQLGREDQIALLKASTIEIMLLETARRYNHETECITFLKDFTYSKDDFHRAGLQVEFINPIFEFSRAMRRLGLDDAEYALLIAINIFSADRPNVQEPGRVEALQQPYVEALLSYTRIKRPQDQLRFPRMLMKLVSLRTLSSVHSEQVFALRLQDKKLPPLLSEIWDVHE
T1 sequence (P19793 1-462 partner): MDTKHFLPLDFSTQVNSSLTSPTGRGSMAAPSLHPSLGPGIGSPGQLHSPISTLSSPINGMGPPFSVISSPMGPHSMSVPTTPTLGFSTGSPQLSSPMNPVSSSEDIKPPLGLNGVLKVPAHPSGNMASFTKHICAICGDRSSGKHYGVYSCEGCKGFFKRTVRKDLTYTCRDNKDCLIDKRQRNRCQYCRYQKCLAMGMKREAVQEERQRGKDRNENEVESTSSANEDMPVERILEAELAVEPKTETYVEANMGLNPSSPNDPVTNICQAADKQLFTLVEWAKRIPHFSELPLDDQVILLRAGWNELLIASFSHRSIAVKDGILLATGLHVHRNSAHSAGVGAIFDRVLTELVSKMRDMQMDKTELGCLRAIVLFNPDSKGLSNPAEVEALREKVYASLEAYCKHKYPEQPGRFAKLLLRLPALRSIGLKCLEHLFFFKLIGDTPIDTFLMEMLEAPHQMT
Assay: Co-transfection assay (LXRE luciferase reporter), LXRβ
Format: cell-based
Set-up: % Efficacy: concentration or dose not given beside the values
Details: for EC50: CV-1 cells transfected with pCMX-hLXRβ and LXREx1-Tk-Luciferase, 20 hours incubation; for Emax: read-out: % Efficacy
How it was run: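 CV-1 cells transiently co-transfected with full-length human LXRβ (or LXRα), LXREx1-Tk-luciferase reporter and β-galactosidase control; compound added (10 μM final in single-point, 11-point ½-log curves, ≤0.5% DMSO) for 20 h at 37 °C. Luciferase read; EC50 from four-parameter fit, efficacy relative to reference agonist high control.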

[1] = LXRβ co-transfection, relative to high control 1-(2,4-difluorobenzyl)-2-oxo-6-(4-phenoxyphenyl)-4-(trifluoromethyl)-1,2-dihydropyridine-3-carbonitrile

| SMILES | EC50 [nM] | Emax [1] [%] | % Efficacy [1] [%] |
| --- | --- | --- | --- |
| COc1ncc(-c2oc(C)nc2-c2cc(-c3cccc(S(C)(=O)=O)c3)ccc2-n2cc(Cl)nc2C)cc1F [Example 464, 4-(4-(4-chloro-2-methyl-1H-imidazol-1-yl)-3′-(methylsulfonyl)biphenyl-3-yl)-5-(5-fluoro-6-methoxypyridin-3-yl)-2-methyloxazole] | 4680 | 42 |  |
| Cc1cc(OC(F)(F)F)ccc1-c1cnnn1-c1cc(-c2cccc(S(C)(=O)=O)c2)ccc1-n1cc(C(F)(F)F)nc1C [Example 57, 1-{3′-(methylsulfonyl)-4-[2-methyl-4-(trifluoromethyl)-1H-imidazol-1-yl]biphenyl-3-yl}-5-{2-methyl-4-[(trifluoromethyl)oxy]phenyl}-1H-1,2,3-triazole] | 215 | 82 |  |
| Cc1nc(-c2cc(-c3cc(F)c(CO)c(S(C)(=O)=O)c3)ccc2-n2cc(C(F)(F)F)nc2C)c(-c2ccc(F)c(OC(F)F)c2)o1 [Example 461, (3′-(5-(3-(difluoromethoxy)-4-fluorophenyl)-2-methyloxazol-4-yl)-3-fluoro-4′-(2-methyl-4-(trifluoromethyl)-1H-imidazol-1-yl)-5-(methylsulfonyl)biphenyl-4-yl)methanol] | 127 | 61 |  |
| Cc1nc(C(F)(F)F)cn1-c1cc(F)c(-c2cccc(S(C)(=O)=O)c2)cc1-n1nncc1-c1ccc(OC(F)(F)F)cc1 [Example 99, 1-{6-fluoro-3′-(methylsulfonyl)-4-[2-methyl-4-(trifluoromethyl)-1H-imidazol-1-yl]biphenyl-3-yl}-5-{4-[(trifluoromethyl)oxy]phenyl}-1H-1,2,3-triazole] | 1010 | 86 |  |
| Cc1nc(C(F)(F)F)cn1-c1ccc(-c2cccc(S(C)(=O)=O)c2)cc1-n1nncc1C(=O)c1cccc(C(F)(F)F)c1 [Example 137, (1-{3′-(methylsulfonyl)-4-[2-methyl-4-(trifluoromethyl)-1H-imidazol-1-yl]biphenyl-3-yl}-1H-1,2,3-triazol-5-yl)[3-(trifluoromethyl)phenyl]meth-anone] | 1090 | 63 |  |
| Cc1nc(-c2cc(-c3cccc(S(C)(=O)=O)c3)ccc2-n2cc(C(F)(F)F)nc2C)c(-c2ccc(Cl)nc2)o1 [Example 550, 5-(6-chloropyridin-3-yl)-2-methyl-4-(4-(2-methyl-4-(trifluoromethyl)-1H-imidazol-1-yl)-3′-(methylsulfonyl)-[1,1′-biphenyl]-3-yl)oxazole] | 625 | 85 |  |
| Cc1nc(-c2ccc3c(c2)OC(F)(F)O3)c(-c2cc(-c3cc(Cl)c(CO)c(S(C)(=O)=O)c3)ccc2-n2cc(C(F)(F)F)nc2C)o1 [Example 623, (3-chloro-3′-(4-(2,2-difluorobenzo[d][1,3]dioxol-5-yl)-2-methyloxazol-5-yl)-4′-(2-methyl-4-(trifluoromethyl)-1H-imidazol-1-yl)-5-(methylsulfonyl)-[1,1′-biphenyl]-4-yl)methanol] | 203 | 80 |  |
| Cc1nc(C2CC2)cn1-c1ccc(-c2cccc(S(C)(=O)=O)c2)cc1-n1nncc1-c1ccc(OC(F)(F)F)cc1 [Example 229, 1-(4-(4-cyclopropyl-2-methyl-1H-imidazol-1-yl)-3′-(methylsulfonyl)-[1,1′-biphenyl]-3-yl)-5-(4-(trifluoromethoxy)phenyl)-1H-1,2,3-triazole] | 949 | 72 |  |
| Cc1nc(C(F)(F)F)cn1-c1c(F)cc(-c2cccc(S(C)(=O)=O)c2)cc1-n1nncc1-c1ccc(Cl)cc1 [Example 204, 5-(4-chlorophenyl)-1-{5-fluoro-3′-(methylsulfonyl)-4-[2-methyl-4-(trifluoromethyl)-1H-imidazol-1-yl]biphenyl-3-yl}-1H-1,2,3-triazole] | 110 | 97 |  |
| Cc1nc(-c2cc(-c3cccc(S(C)(=O)=O)c3)ccc2-n2cc(C(F)(F)F)nc2C)c(-c2cccnc2C)o1 [Example 394, 2-methyl-4-(4-(2-methyl-4-(trifluoromethyl)-1H-imidazol-1-yl)-3′-(methylsulfonyl)biphenyl-3-yl)-5-(2-methylpyridin-3-yl)oxazole] | 615 | 60 |  |
| Cc1nc(-c2cc(-c3cccc(S(C)(=O)=O)c3)ccc2-n2cc(C(F)(F)F)nc2C)c(-c2ccc(F)c(OC(F)F)c2)o1 [Example 460, 5-(3-(difluoromethoxy)-4-fluorophenyl)-2-methyl-4-(4-(2-methyl-4-(trifluoromethyl)-1H-imidazol-1-yl)-3′-(methylsulfonyl)biphenyl-3-yl)oxazole] | 550 | 64 |  |
| Cc1cc(-c2oc(C)nc2-c2cc(-c3cc(F)c(CO)c(S(C)(=O)=O)c3)ccc2-n2cc(C(F)(F)F)nc2C)cc(Cl)n1 [Example 432, (3′-(5-(2-chloro-6-methylpyridin-4-yl)-2-methyloxazol-4-yl)-3-fluoro-4′-(2-methyl-4-(trifluoromethyl)-1H-imidazol-1-yl)-5-(methylsulfonyl)biphenyl-4-yl)methanol] | 45 |  | 83 |
| Cc1nc(-c2cc(-c3cccc(C4(C(N)=O)CC4)c3)ccc2-n2cc(C(F)(F)F)nc2C)c(-c2ccc(OC(F)F)c(F)c2)o1 [Example 438, 1-(3′-(5-(4-(difluoromethoxy)-3-fluorophenyl)-2-methyloxazol-4-yl)-4′-(2-methyl-4-(trifluoromethyl)-1H-imidazol-1-yl)biphenyl-3-yl)cyclopropanecarboxamide] | 1380 | 65 |  |
| Cc1nc(C(F)(F)F)cn1-c1ccc(-c2cccc(S(C)(=O)=O)c2)cc1-c1nc(C(C)C)oc1-c1ccc(OC(F)(F)F)cc1 [Example 559, 2-isopropyl-4-(4-(2-methyl-4-(trifluoromethyl)-1H-imidazol-1-yl)-3′-(methylsulfonyl)-[1,1′-biphenyl]-3-yl)-5-(4-(trifluoromethoxy)phenyl)oxazole] | 34 | 76 |  |
| COCCc1nc(-c2cc(-c3cccc(S(C)(=O)=O)c3)ccc2-n2cc(C(F)(F)F)nc2C)c(-c2ccc(Cl)cc2Cl)o1 [Example 553, 5-(2,4-dichlorophenyl)-2-(2-methoxyethyl)-4-(4-(2-methyl-4-(trifluoromethyl)-1H-imidazol-1-yl)-3′-(methylsulfonyl)-[1,1′-biphenyl]-3-yl)oxazole] | 156 | 60 |  |
| CCS(=O)(=O)c1cccc(-c2ccc(-n3cc(C(F)(F)F)nc3C)c(-n3nncc3C(C)c3ccc(C)cc3)c2)c1 (centres unmarked) [Example 107, 1-{3′-(ethylsulfonyl)-4-[2-methyl-4-(trifluoromethyl)-1H-imidazol-1-yl]biphenyl-3-yl}-5-[1-(4-methylphenyl)ethyl]-1H-1,2,3-triazole] | 201 | 83 |  |
| Cc1nc(-c2cc(-c3cccc(S(C)(=O)=O)c3)ccc2-n2cc(C(F)(F)F)nc2C)c(-c2cc(Cl)cc(Cl)c2)o1 [Example 455, 5-(3,5-dichlorophenyl)-2-methyl-4-(4-(2-methyl-4-(trifluoromethyl)-1H-imidazol-1-yl)-3′-(methylsulfonyl)biphenyl-3-yl)oxazole] | 192 | 43 |  |
| COc1ccc(-c2oc(C)nc2-c2cc(-c3cc(F)c(CO)c(S(C)(=O)=O)c3)ccc2-n2cc(C(F)(F)F)nc2C)cn1 [Example 570, (3-fluoro-3′-(5-(6-methoxypyridin-3-yl)-2-methyloxazol-4-yl)-4′-(2-methyl-4-(trifluoromethyl)-1H-imidazol-1-yl)-5-(methylsulfonyl)-[1,1′-biphenyl]-4-yl)methanol] | 199 | 93 |  |
| Cc1nc(C(F)(F)F)cn1-c1ccc(-c2cccc(C(C)(C)C(N)=O)c2)cc1-n1nncc1C(=O)c1ccc(C(F)(F)F)cc1 [Example 135, 2-methyl-2-{4′-[2-methyl-4-(trifluoromethyl)-1H-imidazol-1-yl]-3′-(5-{[4-(trifluoromethyl)phenyl]carbonyl}-1H-1,2,3-triazol-1-yl)biphenyl-3-yl}propanamide] | 886 | 70 |  |
